According to publication PMC7557147 (Biochemical Journal, 2020):

Experiments:
TgAPN2 [1] = biological target: T1, TgAPN2 (Toxoplasma gondii, UniProt S8G5K8, N1303Q/N840Q); experiment: Michaelis-Menten kinetics of TgAPN2 with fluorogenic Mec substrates; assay type: biochemical, Toxoplasma gondii ME49; settings: substrate of TgAPN2, 20 nM enzyme, 37°C, pH 8.0
recombinant TgAPN2 = settings: ref [14]; cited from earlier work
TgAPN2 [2] = biological target: T1, TgAPN2; assay type: biochemical, Toxoplasma gondii ME49; settings: relative to hArg = 100%; 10 µM ACC substrate, 0.5 nM enzyme
TgAPN2 [3] = biological target: T1, TgAPN2; experiment: TgAPN2 aminopeptidase activity under chelating conditions; assay type: biochemical, Toxoplasma gondii ME49; settings: increasing EDTA concentration (0–200 mM); 20 nM enzyme, 15 µM substrate

Cc1cc(=O)oc2cc(NC(=O)[C@@H](N)CCCNC(=N)N)ccc12.Cl [L-Arg-Mec, L-arginine-7-amido-4-methylcoumarin hydrochloride]
Km (TgAPN2 [1]): 148 ± 5.1 µM | kcat (TgAPN2 [1]): 1017 ± 15.2 s⁻¹ | kcat (TgAPN2 [1]; listed as Arg-Mec): 1017 s⁻¹

CC(C)C[C@H](NC(=O)[C@@H](O)[C@H](N)Cc1ccccc1)C(=O)O [bestatin]
inhibition of recombinant TgAPN2 (in words) (recombinant TgAPN2): inhibited

NC(N)=NCCCC[C@H](N)C(=O)O [hArg, Homo-arginine]
normalised relative activity of TgAPN2 toward P1 substrate (TgAPN2 [2]): 100%

CC(C)C[C@H](N)C(=O)O [Leu]
normalised relative activity of TgAPN2 toward P1 substrate (TgAPN2 [2]): 26%

N=C(N)NCCC[C@H](N)C(=O)O [Arg]
normalised relative activity of TgAPN2 toward P1 substrate (TgAPN2 [2]): 81%

NCCCC[C@H](N)C(=O)O [Lys]
normalised relative activity of TgAPN2 toward P1 substrate (TgAPN2 [2]): 52%

CC(C)C[C@@H](N)[C@H](O)C(=O)N[C@H](C(=O)N[C@H](C(=O)N[C@@H](CC(=O)O)C(=O)O)C(C)C)C(C)C [amastatin]
inhibition of recombinant TgAPN2 (in words) (recombinant TgAPN2): inhibited

N[C@@H](CCc1ccccc1)C(=O)O [hPhe]
normalised relative activity of TgAPN2 toward P1 substrate (TgAPN2 [2]): 18%

Cc1cc(=O)oc2cc(NC(=O)[C@@H](N)CC(C)C)ccc12.Cl [L-Leu-Mec, L-leucine-7-amido-4-methylcoumarin hydrochloride]
Km (TgAPN2 [1]): 31.8 ± 3 µM | kcat (TgAPN2 [1]): 1.32 ± 0.03 s⁻¹ | kcat (TgAPN2 [1]; listed as Leu-Mec): 1.32 s⁻¹

O=C(O)CN(CCN(CC(=O)O)CC(=O)O)CC(=O)O [EDTA]
effect on TgAPN2 enzyme velocity (TgAPN2 [3]): reduction in enzyme velocity

N[C@@H](CCc1ccc(O)cc1)C(=O)O [hTyr]
normalised relative activity of TgAPN2 toward P1 substrate (TgAPN2 [2]): 54%
